Experiment [1] deals with Drosophila S2 cells. The experiment is described as follows: Lipid-droplet formation in S2 cells, BODIPY staining and microscopy. It is filed as cell-based. The following applies: S2 cells incubated with 1 mM oleate for 24 hours. How it is done:
Lipid-droplet formation in Drosophila Schneider 2 (S2) cells is an excellent system for functional genomic studies with efficient gene inactivation by RNAi^6. In the exemplified methods below, lipid-droplet formation was induced by incubation with 1 mM oleate for 24 hours. […] BODIPY-stained fluorescent signals corresponded to lipid droplets with a red fluorescent protein mCherry^7 fused with LSD1, which localizes exclusively to the surface of lipid droplets^3 (not shown).
Cell culture. Drosophila S2 cells were cultured in Schneider's Drosophila medium (Invitrogen) supplemented with 10% fetal bovine serum and antibiotics (100 unit/ml penicillin and 100 μg/ml streptomycin) at 25° C. as described^32. RNAi treatment of S2 cells were performed as previously described^10. A segment of pBluescript backbone was used as the template for control RNAi (referred as control RNAi thereafter). Transfection of S2 cells was performed using Cellfectin reagent (Invitrogen). Images of live cells were taken using LSM 510 confocal microscope (Carl Zeiss MicroImaging) with a 63× oil immersion lens.
Image analyses. S2 cells (2.7×10^6 cells/ml) were treated with 1 μg dsRNA in 96-well plates for 3 days, and 1 mM oleic acid was added for 24 h. Cells were fixed in 4% paraformaldehyde/PBS (1 h) and stained with DAPI and BODIPY493/503 in PBS (1 h). […]

Experiment [2] concerns Drosophila S2 cells. The experiment is described as follows: Cellular triacylglycerol (TG) content of S2 cells. It counts as cell-based. The following applies: S2 cells incubated with 1 mM oleate for 24 hours; means of three experiments, P<0.05. How it is done: FIG. 1A is series of micrographs of S2 cells incubated for 24 hours without (upper) or with (lower) 1 mM oleate. Staining with BODIPY, phase-contrast image, and overlay are shown. FIG. 1B is a graph showing that oleate-loaded cells have an increased triacylglycerol (TG) content. Cells were incubated as in FIG. 1a and their TG (triglyceride) contents were measured. Results are means and s.d. for three experiments; P<0.05. FIG. 1C is a series of micrographs showing that lipid droplet formation occurs in steps. Single cells were followed by four-dimensional confocal time-lapse photography. Representative maximum projections of three-dimensional stacks at the indicated times are shown. Scale bar is 3 μm.
Lipid measurements. Cells were cultured in 6-well plates (16 μg dsRNAs each well) for 3 days, and then 1 mM oleate was added for 24 hours. Cells were lysed in 50 mM Tris-HCl (pH 7.4), 0.25 M sucrose, and samples (250 μg protein) were assayed for lipids. PC was quantified with a colorimetric method^29. TG content was measured from extracted lipids by TLC^30.

`CCCCCCCC/C=C\CCCCCCCC(=O)O` [oleate, Oleic acid]: in the experiment with Drosophila S2 cells [1], the “lipid droplet size, number, and overall volume (BODIPY staining)” value is “increased”. In addition, the “cellular triacylglycerol (TG) content” value with Drosophila S2 cells [2] was “increased sevenfold”.
